These results are taken from ChEMBL document CHEMBL3621111, “In vitro COX-1 and COX-2 enzyme inhibitory activities of iridoids from Penstemon barbatus, Castilleja tenuiflora, Cresentia alata and Vitex mollis” (Bioorg Med Chem Lett, 2015).

Test [1] concerns the target Prostaglandin G/H synthase 1 (Homo sapiens) (UniProt P23219). Briefly: Inhibition of COX1 (unknown origin) assessed as PGH2 production at 35 uM by measuring […] level by enzyme immunoassay.
For test [2] the target is unchanged. The test can be described thus: Inhibition of COX1 (unknown origin) assessed as PGH2 production at 10 uM by measuring […] level by enzyme immunoassay.
Test [3] has the same target. The test can be described thus: Inhibition of COX1 (unknown origin) assessed as PGH2 production at 100 uM by measuring […] level by enzyme immunoassay.

Prostaglandin G/H synthase 1 (Homo sapiens), sequence (P23219 whole entry): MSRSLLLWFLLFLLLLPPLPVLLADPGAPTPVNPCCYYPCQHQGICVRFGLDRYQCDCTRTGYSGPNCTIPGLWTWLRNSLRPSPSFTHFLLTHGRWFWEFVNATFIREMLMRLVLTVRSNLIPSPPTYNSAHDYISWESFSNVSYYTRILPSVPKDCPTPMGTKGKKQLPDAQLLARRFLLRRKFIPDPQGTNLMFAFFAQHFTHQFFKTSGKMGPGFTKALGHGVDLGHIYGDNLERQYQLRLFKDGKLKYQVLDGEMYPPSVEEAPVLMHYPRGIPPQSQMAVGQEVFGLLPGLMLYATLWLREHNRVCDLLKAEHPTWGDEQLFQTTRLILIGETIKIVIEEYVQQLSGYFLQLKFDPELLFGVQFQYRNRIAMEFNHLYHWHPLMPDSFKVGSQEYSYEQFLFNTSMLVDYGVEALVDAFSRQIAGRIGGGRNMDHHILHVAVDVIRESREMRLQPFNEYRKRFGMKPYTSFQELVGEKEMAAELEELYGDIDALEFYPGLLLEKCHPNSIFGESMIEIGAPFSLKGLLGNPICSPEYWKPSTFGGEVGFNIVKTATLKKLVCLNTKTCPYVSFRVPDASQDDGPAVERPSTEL

Usually inhibition stands for the share of the control response that was lost under treatment. Turning to `O=C(O)C1=CO[C@@H](O[C@@H]2O[C@H](CO)[C@@H](O)[C@H](O)[C@H]2O)[C@@H]2C(CO)=CC[C@H]12`, the inhibition was found to be 54.1% in test [1], 55.7% in test [2] and 55.3% in test [3].
Consider `OCC1=CC[C@@H]2C=CO[C@@H](O[C@@H]3O[C@H](CO)[C@@H](O)[C@H](O)[C@H]3O)[C@H]12`, for which the results for the inhibition in test [1], in test [2] and in test [3] were 49.9%, 52.7% and 47.5%, respectively.
Turning to `COC(=O)C1=CO[C@@H](O[C@@H]2O[C@H](CO)[C@@H](O)[C@H](O)[C@H]2O)[C@@H]2[C@@H](C)[C@@H](O)C[C@H]12`, the inhibition in test [1] was found to be 51.5%; in test [2] it was 51.2%; in test [3] it was 50.5%.
As for `COC(=O)C1=CO[C@@H](O[C@@H]2O[C@H](CO)[C@@H](O)[C@H](O)[C@H]2O)[C@@H]2[C@H](C)C[C@@H](O)[C@]12O`, the inhibition in test [1] came out at 33.4%; in test [2], 33.2%; in test [3], 51.7%.
With `C=C1[C@H]2[C@H](O[C@@H]3O[C@H](CO)[C@@H](O)[C@H](O)[C@H]3O)OC=C(C(=O)O)[C@H]2C[C@@H]1O`, the inhibition in test [1] was 51.4%; in test [2], 51.7%; in test [3], 48.2%.
On to `COc1ccc(C(=O)O[C@H]2[C@@H]3C=CO[C@@H](O[C@@H]4O[C@H](CO)[C@@H](O)[C@H](O)[C@H]4O)[C@@H]3[C@@]3(CO)O[C@@H]23)cc1OC`, for which the inhibition came to 38.6% in test [1], 38.2% in test [2] and 39.1% in test [3].
Take `OC[C@H]1O[C@@H](O[C@@H]2OC=C[C@H]3[C@H](O)[C@@H]4O[C@]4(CO)[C@@H]23)[C@H](O)[C@@H](O)[C@@H]1O`: the inhibition in test [1] came to 47.6%; in test [2], 44.2%; in test [3] it was 63.7%.
As for `O=C(OCC1=C[C@@H](O)[C@@H]2C=CO[C@@H](O[C@@H]3O[C@H](CO)[C@@H](O)[C@H](O)[C@H]3O)[C@H]12)c1ccc(O)cc1`, the figures for the inhibition in test [1], in test [2] and in test [3] were 40.8%, 40.3% and 43.4%, respectively.
Consider `C[C@@H]1CC[C@]2(O)C(C=O)=CO[C@@H](O[C@@H]3O[C@H](CO)[C@@H](O)[C@H](O)[C@H]3O)[C@H]12`, for which the inhibition worked out at 36.6% in test [1], 36.3% in test [2] and 39.9% in test [3].
With `C[C@@H]1[C@H]2[C@H](O[C@@H]3O[C@H](CO)[C@@H](O)[C@H](O)[C@H]3O)OC=C(C(=O)O)[C@H]2C[C@@H]1O`, the results for the inhibition in test [1], in test [2] and in test [3] were 36%, 36.9% and 35.4%, respectively.
The like results for `CC(=O)O[C@]1(C)C[C@@H](O)[C@]2(O)C=CO[C@@H](O[C@@H]3O[C@H](CO)[C@@H](O)[C@H](O)[C@H]3O)[C@@H]21` were, in that order, 38.6%, 38.5% and 39.1%.
On to `COC(=O)C1=CO[C@@H](O[C@@H]2O[C@H](CO)[C@@H](O)[C@H](O)[C@H]2O)[C@H]2[C@@H]1CC[C@]2(C)O`, for which the inhibition was 42.6% in test [1], less than 30% in test [2] and 42.7% in test [3].
For `COC(=O)C1=CO[C@@H](O[C@@H]2O[C@H](CO)[C@@H](O)[C@H](O)[C@H]2O)[C@@H]2[C@H](C)[C@@H](O)C[C@H]12` the same measures were less than 30%, 33.4% and less than 30%.
For `OCC1=C[C@@H](O)[C@@H]2C=CO[C@@H](O[C@@H]3O[C@H](CO)[C@@H](O)[C@H](O)[C@H]3O)[C@H]12`, the inhibition in test [1] stood at 48.2%; in test [2] it was 49.9%; in test [3] it was 50.2%.
As to `COc1ccc(C(=O)O[C@@H]2C=C(CO)[C@H]3[C@H](O[C@@H]4O[C@H](CO)[C@@H](O)[C@H](O)[C@H]4O)OC=C[C@H]32)cc1`, the inhibition in test [1] was 34.3%; in test [2], 35%; in test [3], 32.8%.
For the compound `C[C@@H]1CC[C@@H]2C(C=O)=CO[C@@H](O[C@@H]3O[C@H](CO)[C@@H](O)[C@H](O)[C@H]3O)[C@H]12`, the results for the inhibition in test [1], in test [2] and in test [3] were 48%, 43% and 73.3%, respectively.
